≈ marks a conversion by molar mass, not a printed value.
Columns and labels:
[1] = Precipitation on dilution/addition of water; format: physicochemical
[2] = Dissolution and solution stability by visual inspection; format: physicochemical; conditions: for dissolution on visual inspection: target 10 mg/mL in PEG400, after vortexing
Procedure: 13.0 mgs of dantrolene acid was dissolved in 1.3 mL of PEG400, targeting 10 mg/mL dantrolene acid. 12.7 mgs of dantrolene sodium was dissolved in 1.27 mL of PEG400, targeting 10 mg/mL of dantrolene sodium. […] Both tubes were centrifuged for 5 min at 3,900 rpm at room temperature to separate the sample into supernatant (dantrolene acid or dantrolene sodium in solution) and pellet (insoluble material). […] The supernatant of the dantrolene acid sample was transferred into a clean tube. The dantrolene acid supernatant and the dantrolene sodium solution were diluted 100- and 200-fold in 25% acetonitrile for analysis on the UPLC as described below.
Dantrolene sodium (6.4 mg) was weighed into a glass vial and propylene glycol (0.128 mL) was added, using a positive displacement pipette to achieve a target concentration of 50 mg/mL of dantrolene sodium. The contents of the vials were mixed with a positive displacement pipette. Visual inspection confirmed that the solutions were clear. The sample was a stable solution for at about 2 days at room temperature, after which time, precipitate formed. The precipitate was 99.9% dantrolene, as determined using HPLC.
Dantrolene sodium (6.2 mg) was weighed into a glass vial and PEG400 (0.124 mL) was added, using a positive displacement pipette to achieve a target concentration of 50 mg/mL of dantrolene sodium. The contents of the vials were mixed with a positive displacement pipette. Visual inspection confirmed that solutions were clear. The sample was a stable solution for at about 2 days at room temperature, after which time, precipitate formed. The precipitate was 99.9% dantrolene, as determined using HPLC.

[3] = cited from earlier work
[4] = Effective pH determination (10-fold dilution of non-aqueous sample in water); format: physicochemical; conditions: for effective pH of 10 mg/mL samples in PEG400: Example 3, target 10 mg/mL in PEG400, 10-fold dilution in water, ratios acid:sodium by volume; for pH of the supernatant (effective pH): 10-fold dilution in water
Procedure: The pH of the supernatant was measured by making a 10-fold dilution of the supernatant in water.
The effective pH of the supernatant was measured by making a 10-fold dilution of the supernatant in water.
The effective pH of the dantrolene acid supernatant and dantrolene sodium sample was measured by making 10-fold dilutions in water, per the methods described elsewhere herein.
The effective pH of each sample was measured by making 10F dilutions in water. The pH values were recorded as follows—
Effective pH measurements were conducted at ambient room temperature, using a Thermo Scientific Orion Star A111 pH benchtop meter. The instrument was calibrated within one day of the effective pH measurement using phosphate buffers at pH 4, 7, and 10 (Hydrion Tri-Chek Buffer Capsule set).
Samples were prepared by diluting the non-aqueous/anhydrous sample 10 fold with water. The diluted sample was vortexed for about 10 to 15 seconds. Effective pH was measured using the pre-calibrated pH benchtop meter, directly after vortexing.
After each effective pH measurement, the pH bulb was rinsed with an appropriate rinse solution to remove the entire test sample from the bulb.

[5] = Solubility / concentration determination by UPLC of supernatant; format: physicochemical; conditions: organic solvent or mixture, thermodynamic from solid; saturated supernatant, room temperature, propylene glycol
Procedure: 11.2 mgs of dantrolene acid was added to 224 uL of PEG400. […] The tube was centrifuged for 5 min at 15,000 rpm at room temperature to separate the sample into supernatant (dantrolene acid in solution) and pellet (insoluble material). The supernatant was transferred into a clean tube and diluted 100-, 200- and 400-fold in 25% acetonitrile for analysis by UPLC as described below.
16.3 mgs of dantrolene acid was added to 326 uL of propylene glycol. […] The tube was centrifuged for 5 min at 15,000 rpm at room temperature to separate the sample into supernatant (dantrolene acid in solution) and pellet (insoluble material). The supernatant was transferred into a clean tube and diluted 50-, 100- and 200-fold in 25% acetonitrile for analysis by UPLC as described below. The solubility of dantrolene acid in propylene glycol was calculated as ˜0.8 mg/mL.
13.0 mgs of dantrolene acid was dissolved in 1.3 mL of PEG400, targeting 10 mg/mL dantrolene acid. […]
Analysis was performed using an Agilent UPLC System equipped with a diode array detector and an Agilent C18 Zorbax column. Samples were analyzed using a gradient method with mobile phase A containing 0.1% trifluoroacetic acid in water and mobile phase B containing 0.1% trifluoroacetic acid in acetonitrile. […] A 10 uL sample was injected and the analytes were detected by UV at 385 nm. […] Peak areas were determined by manual integration. […]

[6] = pH of aqueous slurry of dantrolene sodium; format: physicochemical; conditions: 43.5 mg in 43.5 mL of water
Procedure: 43.5 mgs of dantrolene sodium was slurried in 43.5 mL of water in a conical tube. The pH of the initial of the slurry was 9.89.

Row | SMILES | behaviour of the 10-fold dilution in water ([1]; PEG400 supernatant) | behaviour of the 10-fold dilution in water ([1]; propylene glycol supernatant) | dissolution on visual inspection [2] | solubility in water [3] | effective pH of 10 mg/mL samples in PEG400 [4] | pH of the supernatant (effective pH) ([4]; PEG400 supernatant) | pH of the supernatant (effective pH) ([4]; propylene glycol supernatant) | solubility [5] [µg/mL] | effect of addition of 50 μL of water ([1]; 50 mg/mL in PEG400 (0.124 mL)) | effect of addition of 50 μL of water ([1]; 50 mg/mL in propylene glycol (0.128 mL)) | pH of the initial slurry [6] | time as stable solution before precipitate formed ([2]; 50 mg/mL in PEG400, room temperature) | time as stable solution before precipitate formed ([2]; 50 mg/mL in propylene glycol, room temperature) | visual inspection of solution ([2]; target 50 mg/mL in PEG400) | visual inspection of solution ([2]; target 50 mg/mL in propylene glycol)
1 | O=C1CN(/N=C/c2ccc(-c3ccc([N+](=O)[O-])cc3)o2)C(O)=N1 [dantrolene acid, 1-{[5-(4-nitrophenyl)-2-furyl]methylideneamino}imidazolidine-2,4-dione] | precipitated out quickly | precipitated out slowly | cloudy after vortexing | very poorly soluble in water | 4.95 | 4.88 | 5.73 | ~800 (≈ 2550 µM) |  |  |  |  |  |  | 
2 | O=C1CN(/N=C/c2ccc(-c3ccc([N+](=O)[O-])cc3)o2)C(O)=N1 [dantrolene sodium] |  |  | completely dissolved |  | 9.67 |  |  |  | precipitation | precipitation | 9.89 | about 2 days | about 2 days | clear | clear

From patent US20210236467A1, “DANTROLENE FORMULATIONS AND METHODS OF THEIR USE” (EAGLE PHARMACEUTICALS, INC., priority 2018, published 2021)
